Where two headings read alike, the source gives them in different places. Each block holds one compound with its values, some of them ahead of it.
Assays:
[1] = mice, oral, cited from earlier work
[2] = Double-Sink PAMPA permeability with and without excipients
[3] = mice; +HP-β-CD / no excip.
[4] = flux function combining permeability and solubility measurement results; conditions: for flux increase factor: 1% HP-β-CD vs excipient-free
[5] = equilibrium solubility-pH, direct-UV microtitre plate (μSOL Evolution) with and without excipients; conditions: for solubility at 18 h / pKa at 18 h: aqueous universal buffer (pION); for solubility at 18 h: 25 °C, kinetic from dmso stock; for pKa at 18 h: saturated drug suspension, pKa^APP ± SD
[6] = PAMPA, 30 min, 50 μM
[7] = 18 h
[8] = physchem
[9] = physchem; remark: listed apart in the source
[10] = Excipient Effect: receiver UV AUC ratio in Double-Sink PAMPA with saturated donor (second embodiment); assay type: in vitro ADME; conditions: pH 5.0; receiver AUC with excipient / without excipient
Protocol: The compounds are presented as DMSO solutions with a concentration of about 10 mM. They are further diluted in a universal aqueous buffer and adjusted to pH 5.0, 6.2, and 7.4 with 0.5 M NaOH. The background amount of DMSO in the aqueous solution is 0.5% v/v. Most of the compounds are insoluble in water, where they form saturated solutions with precipitation present. The calculated concentration of the compounds in the buffer is about 50 μM, but because of precipitation, the actual concentrations in the aqueous media must be lower than that, and are unknown. Saturated (non-filtered) solutions are transferred to the donor compartment of the PAMPA sandwich pre-loaded with magnetic stirrers. The filter of the PAMPA filter plate (the acceptor compartment of the PAMPA sandwich) is covered with GIT-lipid and filled with acceptor sink buffer (ASB). […]
Thus, it's not surprising that the absorption behavior for this compound at pH 5.0 is governed by the permeability and that the presence of the excipient in the donor compartment decreases the permeability of Butacaine. The second embodiment of the method of the invention allows detection of this behavior without separate measurements of the solubility and permeability constants, but by simple comparison of the compound concentrations (UV absorbance) in the receiver compartments.

[11] = PAMPA
[12] = dogs, gel caps, 200 mg/kg; cited from earlier work
[13] = cited from earlier work
[14] = buffer + 1% w/v HP-b-CD, * = anticipated salt limit exceeded
[15] = buffer, * = anticipated salt limit exceeded
[16] = apparent/true molecular weight, 40 μm ABL assumed, 0 mM NaTC (first value)

Compound: CCCSc1ccc2nc(NC(=O)OC)[nH]c2c1 [albendazole]
- Cmax +HP-β-CD ([1]; HP-β-CD (20% w/v)): 0.39 µg/mL
- Tmax +HP-β-CD ([1]; HP-β-CD (20% w/v)): 19.8 min
- Cmax no excip. ([1]; suspension of excipient-free drug): 0.09 µg/mL
- Tmax no excip. [1]: 45 min
- Po ([2]; buffer): 4.28 ± 1.59 E−04 cm s^−1
- Po ([2]; buffer + 1% w/v HP-b-CD): 3.12 ± 0.30 E−05 cm s^−1
- AUC Ratio [3]: 1.4
- Cmax Ratio [3]: 4.3
- Tmax Ratio [3]: 0.4
- flux increase factor ([4]; pH 5.0): 3.0
- flux increase factor ([4]; pH 6.2): 3.1
- flux increase factor ([4]; pH 7.4): 3.1
- average flux gain factor ([4]; 1% HP-β-CD, average over pH 5.0, 6.2, 7.4): 3.1
- net flux effect due to 1% HP-β-CD ([4]; pH 5.0, 6.2, 7.4, FIG. 13): gains, uniformly at the three pH values of interest
- So^APP ([5]; buffer): 0.88 ± 0.07 µg/mL
- S(pH 7.4) ([5]; buffer + 1% w/v HP-b-CD): 34 μg mL^−1
- So^APP ([5]; buffer + 1% w/v HP-b-CD): 34 ± 1 µg/mL
- S(pH 5.0) [5, 14]: 34 μg mL^−1
- S(pH 6.2) [5, 14]: 34 μg mL^−1
- S(pH 5.0) [5, 15]: 1.0 μg mL^−1
- S(pH 6.2) [5, 15]: 0.89 μg mL^−1
- S(pH 7.4) [5, 15]: 0.88 μg mL^−1

Compound: CCCCN(CCCC)CCCOC(=O)c1ccc(N)cc1 [butacaine]
- excipient Effect [10]: < 1
- PABL 0 mM NaTC [6]: 713
- PABL 3 mM NaTC [6]: 954
- PABL 15 mM NaTC [6]: 13
- refined ABL thickness [6]: exceeding 75 μm
- net flux effect due to 1% HP-β-CD ([11]; pH 5): loses at all pH values
- MW*/MW ([2]; 3 mM NaTC (second value)): 2
- MW*/MW ([2]; 15 mM NaTC (third value)): 30000
- MW*/MW [2, 16]: 4
- solubility at 18 h ([5]; aqueous with cosolvent or surfactant or cyclodextrin): 152 µg/mL
- solubility at 18 h ([5]; pH 5, aqueous buffer): > 50 µM
- pKa at 18 h ([5]; apparent ionization constant in saturated solution, excipient none): 8.8 ± 0.2
- pKa at 18 h ([5]; apparent ionization constant, excipient 3 mM NaTC): 8.9 ± 0.2
- pKa at 18 h ([5]; apparent ionization constant, excipient 15 mM NaTC): 8.5 ± 0.1
- pKa at 18 h ([5]; apparent ionization constant, excipient 0.1M KCl): 8.3 ± 0.3
- pKa at 18 h ([5]; apparent ionization constant, excipient 0.2M KCl): 8.6 ± 0.1
- pKa at 18 h ([5]; apparent ionization constant, excipient 1% HP-b-CD): 8.1 ± 0.1
- pKa at 18 h ([5]; apparent ionization constant, excipient 1% NMP): 8.5 ± 0.1
- pKa at 18 h ([5]; apparent ionization constant, excipient 1% PEG400): 8.5 ± 0.1
- pKa at 18 h ([5]; apparent ionization constant, excipient 1% PG): 8.2 ± 0.1
- pKa at 18 h ([5]; apparent ionization constant, excipient 5% PEG400): 8.5
- pKa at 18 h ([5]; apparent ionization constant, excipient 5% PG): 8.5 ± 0.2
- pKa at 18 h ([5]; apparent ionization constant, excipient […] HP-b-CD): 8.5 ± 0.1
- pKa at 18 h ([5]; apparent ionization constant, excipient […] NMP): 8.8 ± 0.1
- pKa at 18 h ([5]; apparent ionization constant, excipient […] PEG400): 8.5
- pKa at 18 h ([5]; apparent ionization constant, excipient […] PG): 8.8 ± 0.1
- So ± SD ([5]; excipient 3 mM NaTC): 3.1 ± 1.6 µg/mL
- So^APP ± SD ([5]; excipient 3 mM NaTC): 50 ± 10 µg/mL
- So ± SD ([5]; excipient 15 mM NaTC): 2.3 ± 0.4 µg/mL
- So^APP ± SD ([5]; excipient 15 mM NaTC): 96 ± 4 µg/mL
- So ± SD ([5]; excipient 0.1M KCl): 1.3 ± 0.8 µg/mL
- So^APP ± SD ([5]; excipient 0.1M KCl): 83 ± 17 µg/mL
- So ± SD ([5]; excipient 0.2M KCl): 2.5 ± 0.2 µg/mL
- So^APP ± SD ([5]; excipient 0.2M KCl): 78 ± 2 µg/mL
- So ± SD ([5]; excipient 1% HP-b-CD): 1.5 ± 0.4 µg/mL
- So^APP ± SD ([5]; excipient 1% HP-b-CD): 141 ± 7 µg/mL
- So ± SD ([5]; excipient 1% NMP): 1.9 ± 0.5 µg/mL
- So^APP ± SD ([5]; excipient 1% NMP): 71 ± 5 µg/mL
- So ± SD ([5]; excipient 1% PEG400): 2.8 ± 0.4 µg/mL
- So^APP ± SD ([5]; excipient 1% PEG400): 107 ± 2 µg/mL
- So ± SD ([5]; excipient 1% PG): 0.9 ± 0.2 µg/mL
- So^APP ± SD ([5]; excipient 1% PG): 69 ± 5 µg/mL
- So ± SD ([5]; excipient 5% PEG400): 2.8 µg/mL
- So^APP ± SD ([5]; excipient 5% PEG400): 107 µg/mL
- So ± SD ([5]; excipient 5% PG): 1.5 ± 0.5 µg/mL
- So^APP ± SD ([5]; excipient 5% PG): 66 ± 9 µg/mL
- So ± SD ([5]; excipient […] HP-b-CD): 2.0 ± 0.3 µg/mL
- So^APP ± SD ([5]; excipient […] HP-b-CD): 79 ± 4 µg/mL
- So ± SD ([5]; excipient […] NMP): 2.1 ± 0.5 µg/mL
- So^APP ± SD ([5]; excipient […] NMP): 47 ± 3 µg/mL
- So ± SD ([5]; excipient […] PEG400): 3.6 µg/mL
- So^APP ± SD ([5]; excipient […] PEG400): 151 µg/mL
- So ± SD ([5]; excipient […] PG): 2.3 ± 0.5 µg/mL
- So^APP ± SD ([5]; excipient […] PG): 51 ± 4 µg/mL
- So ± SD ([5]; excipient none): 1.9 ± 0.7 µg/mL
- So^APP ± SD ([5]; excipient none): 40 ± 6 µg/mL
- So^APP ± SD ([5]; excipient none, listed as Butacaine): 40 µg/mL
- salt limit (sdiff 3-4 approximation) ([5]; three orders of magnitude above excipient-free intrinsic solubility): 39.8 mg/mL

Compound: Clc1ccccc1C(c1ccccc1)(c1ccccc1)n1ccnc1 [clotrimazole]
- PABL 0 mM NaTC [6]: 2400
- PABL 3 mM NaTC [6]: 604
- determined ABL thickness hABL [6]: < 50 μm
- pKa [8]: 6.02 ± 0.05
- pKa at 18 h ([9]; pKa^APP ± SD): 7.4 ± 1.1
- MW*/MW ([2]; 3 mM NaTC (second value)): 5
- MW*/MW [2, 16]: < 1

Compound: hydroxypropyl-β-cyclodextrin [HP-β-CD]
- solubility [13]: 450 mg/mL

More lines, main results first:

- PABL 0 mM NaTC [6]: 1080
- PABL 3 mM NaTC [6]: 561
- PABL 15 mM NaTC [6]: 9
- determined ABL thickness hABL [6]: < 50 μm
- So ± SD [7]: 4.0 ± 2.9 µg/mL
- pKa [8]: 5.99 ± 0.06
- pKa at 18 h ([9]; pKa^APP ± SD): 9.1 ± 0.5
- MW*/MW ([2]; 3 mM NaTC (second value)): 5
- MW*/MW ([2]; 15 mM NaTC (third value)): 56000
- MW*/MW [2, 16]: ~1
Compound: COc1ccc(CCN2CCC(Nc3nc4ccccc4n3Cc3ccc(F)cc3)CC2)cc1 [astemizole]

- n ± SD [7]: 1.1 ± 0.1
- average flux gain factor ([11]; pH 5): 3.1
- flux increase factor ([11]; pH 5): 20.1
- flux increase factor ([11]; pH 6.2): 4.3
- flux decrease factor ([11]; pH 7.4): 3
- pKa [8]: 5.75 ± 0.15
- pKa at 18 h ([9]; negative shift in the apparent pKa): 1.6
- pKa at 18 h ([9]; pKa^APP ± SD): 4.6 ± 0.1
Compound: COc1ccc(Cl)cc1C(=O)NCCc1ccc(S(=O)(=O)NC(=O)NC2CCCCC2)cc1 [glybenclamide]
- Cmax +HP-β-CD [12]: 0.61 µg/mL
- Cmax no excip. [12]: 0.0839 µg/mL
- Tmax +HP-β-CD [12]: 150 min
- Tmax no excip. [12]: 270 min

Reference: patent publication US8175815B2, “Method for assessing absorption properties of low solubility compounds” (F. Hoffmann-La Roche AG, priority 2006, dated 2012)
